Experiment [1] has as its system pERK1/2(THR202/TYR204) level in AsPC-1 cell line. The experiment is described as follows: KRAS G12D pERK assay in AsPC-1 cells (HTRF). The format is cell-based. To be noted: Homo sapiens, ASPC1, Table 5, 2 h compound treatment. On the procedure:
AsPC-1 cell line was used in this study. Cells were maintained in RPMI-1640 supplemented with 10% fetal bovine serum (Thermo Fisher), 50 units/ml, penicillin and streptomycin (Thermo Fisher) and kept at 37° C. in a humidified atmosphere of 5% CO2 in air. Cells were reinstated from frozen stocks that were laid down within 30 passages from the original cells purchased. 30000 cells per well were seeded into a 96-well plate and incubated overnight. Cells were treated with a 10-point dilution series. The final compound concentration is from 0 to 10 μM. After 2 h compound treatment, cells were lysed, and the pERK1/2(THR202/TYR204) level in the cell lysates was detected by HTRF kit (Cisbio). In brief, a total of 16 μL of cell lysate from each well of a 96-well plate was transferred to a 384-well white assay plate. Lysate from each well was incubated with 2 μL of Eu3+-cryptate (donor) labeled anti-phospho-ERK1/2 and 2 μL of D2 (acceptor) labeled anti-phospho-ERK1/2 antibodies (Cisbio) overnight in dark at room temperature. When the donor and acceptor are in close proximity, excitation of the donor with laser triggers a Fluorescence Resonance Energy Transfer (FRET) towards the acceptor, which in turn fluoresces at 655 nm wavelength. FRET signals were measured using a PHERAstar FSX reader (BMG Labtech). IC50 determination was performed by fitting the curve of percent inhibition versus the log of the inhibitor concentration using Dotmatics.
In general terms: TR-FRET usually uses a lanthanide donor and a delayed reading to cut background.

The target in experiment [2] is GST-tagged GDP-loaded KRAS G12D (amin acids 1-188) (Homo sapiens, UniProt P01116, G12D). The experiment can be described thus: KRAS G12D probe displacement assay (TR-FRET). The format is binding. To be noted: Table 5; KRAS G12D 0.5 nM, biotinylated probe 2 4 nM. On the procedure:
Plates are incubated at 24° C. for 1 hr.

The target of experiment [3] is GST-tagged GDP-loaded KRAS G12V (amino acids 1-169) (Homo sapiens, UniProt P01116, G12V). The experiment is described as follows: KRAS G12V probe displacement assay (TR-FRET). The note with it: Table 4; KRAS G12V 2 nM, biotinylated probe 2 2.5 nM. The format is binding. How it is done:
Plates are incubated at 24 °C for 1 hr. […] After 1 hr incubation at 24° C.

The subject of experiment [4] is pERK1/2(THR202/TYR204) level in SW620 cell line. The experiment is described as follows: KRAS G12V pERK assay in SW620 cells (HTRF). The format is cell-based. The note with it: Homo sapiens, SW-620, Table 4, 2 hrs compound treatment. How it is done: SW620 cell line was used in this study. Cells were maintained in RPMI 1640 supplemented with 10% fetal bovine serum (Thermo Fisher), 50 units/mL penicillin and streptomycin (Thermo Fisher) and kept at 37° C. in a humidified atmosphere of 5% CO2 in air. Cells were reinstated from frozen stocks that were laid down within 30 passages from the original cells purchased. 40000 cells per well were seeded into a 96-well plate and incubated overnight. Cells were treated with a 10-point dilution series. The final compound concentration is from 0 to 10 μM. After 2 hrs compound treatment, cells were lysed, and the pERK1/2(THR202/TYR204) level in the cell lysates was detected by HTRF kit (Cisbio). In brief, a total of 16 μL of cell lysate from each well of a 96-well plate was transferred to a 384-well white assay plate. Lysate from each well was incubated with 2 μL of Eu3+-cryptate (donor) labeled anti-phospho-ERK1/2 and 2 μL of D)2 (acceptor) labeled anti-phospho-ERK1/2 antibodies (Cisbio) overnight in dark at room temperature. When donor and acceptor are in close proximity, excitation of the donor with laser triggers a Fluorescence Resonance Energy Transfer (FRET) towards the acceptor, which in turn fluoresces at 655 nm wavelength. FRET signals were measured using a PHERAstar FSX reader (BMG Labtech). IC50 determination was performed by fitting the curve of percent inhibition versus the log of the inhibitor concentration using Dotmatics.

Sequence of GST-tagged GDP-loaded KRAS G12D (amin acids 1-188) (P01116 1-188 isoform P01116-2 G12D): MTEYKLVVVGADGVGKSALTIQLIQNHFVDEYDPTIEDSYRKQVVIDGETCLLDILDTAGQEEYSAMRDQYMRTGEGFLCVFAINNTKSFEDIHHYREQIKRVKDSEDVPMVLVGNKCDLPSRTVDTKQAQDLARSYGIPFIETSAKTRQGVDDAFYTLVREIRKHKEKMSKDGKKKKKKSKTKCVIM
Sequence of GST-tagged GDP-loaded KRAS G12V (amino acids 1-169) (P01116 1-169 isoform P01116-2 G12V): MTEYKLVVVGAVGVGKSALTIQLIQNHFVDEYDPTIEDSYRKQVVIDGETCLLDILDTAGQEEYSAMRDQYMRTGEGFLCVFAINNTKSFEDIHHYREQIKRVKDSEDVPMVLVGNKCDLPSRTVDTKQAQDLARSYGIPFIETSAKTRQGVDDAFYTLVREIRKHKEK

As a reminder, the IC50 is the concentration that inhibits the measured activity by half. High values mean lower potency, low ones higher potency. With `CN(C)CCN1c2nc(OC[C@@]34CCCN3C[C@H](F)C4)nc3c(F)c(-c4cc(N)cc(Cl)c4C(F)(F)F)nc(c23)OCCC12CC2` [Example 43, 3-chloro-5-(11-(2-(dimethylamino)ethyl)-4-fluoro-2-(((2R,7aS)-2-fluorotetrahydro-1H-pyrrolizin-7a(5H)-yl)methoxy)-8,9-dihydro-11H-7-oxa-1,3,6,11-tetraazaspiro[cycloocta[de]naphthalene-10,1′-cyclopropan]-1(11a), 2,3a, 4,6-pentaen-5-yl)-4-(trifluoromethyl)aniline], the values for the IC50 in experiment [1] and in experiment [2] were 92 nM and 0.73 nM, respectively. The matching figures for `CNCCN1c2nc(OC[C@@]34CCCN3C[C@H](F)C4)nc3c(F)c(-c4cc(N)cc(Cl)c4C(F)(F)F)nc(c23)O[C@H]2CCCC[C@@H]21` [Example 48, 3-chloro-5-((7aS,11aS)-4-fluoro-2-(((2R,7aS)-2-fluorotetrahydro-1H-pyrrolizin-7a(5H)-yl)methoxy)-12-(2-(methylamino)ethyl)-7a, 8,10,11,11a, 12-hexahydro-9H-7-oxa-1,3,6,12-tetraazapleiaden-5-yl)-4-(trifluoromethyl)aniline]: 3380 nM and 20 nM.

Regarding `Nc1cc(Cl)c(C(F)(F)F)c(-c2nc3c4c(nc(OC[C@@]56CCCN5C[C@H](F)C6)nc4c2F)N([C@@H]2CCNC2)CCCO3)c1` [Example 41, 3-chloro-5-(4-fluoro-2-(((2R,7aS)-2-fluorotetrahydro-1H-pyrrolizin-7a(5H)-yl)methoxy)-11-((R)-pyrrolidin-3-yl)-8,9,10,11-tetrahydro-7-oxa-1,3,6,11-tetraazacycloocta[de]naphthalen-5-yl)-4-(trifluoromethyl)aniline], in experiment [2], the IC50 was 34 nM. On the same count and under the same terms, as for `CNCCN1CCCOc2nc(-c3cc(N)cc(Cl)c3C(F)(F)F)c(F)c3nc(OC[C@@]45CCCN4C[C@H](F)C5)nc1c23` [Example 17, 3-chloro-5-(4-fluoro-2-(((2R,7aS)-2-fluorotetrahydro-1H-pyrrolizin-7a(5H)-yl)methoxy)-11-(2-(methylamino)ethyl)-8,9,10,11-tetrahydro-7-oxa-1,3,6,11-tetraazacycloocta[de]naphthalen-5-yl)-4-(trifluoromethyl)aniline], the figure is 9.6 nM. Turning to `CN1c2nc(OC[C@@]34CCCN3C[C@H](F)C4)nc3c(F)c(-c4cc(N)cc(Cl)c4C(F)(F)F)nc(c23)O[C@H]2CCCC[C@@H]21` [Example 46, 3-chloro-5-((7aS,11aS)-4-fluoro-2-(((2R,7aS)-2-fluorotetrahydro-1H-pyrrolizin-7a(5H)-yl)methoxy)-12-methyl-7a, 8,10,11,11a, 12-hexahydro-9H-7-oxa-1,3,6,12-tetraazapleiaden-5-yl)-4-(trifluoromethyl)aniline], the IC50 was 0.48 nM in experiment [3] and 37 nM in experiment [4].

For `CN1c2nc(OC[C@@]34CCCN3C[C@H](F)C4)nc3c(F)c(-c4cc(N)cc(Cl)c4C(F)(F)F)nc(c23)O[C@@H]2CCC[C@H](O)[C@H]21` (relative stereo) [Example 47, (7aR*,11S*,11aR*)-5-(5-amino-3-chloro-2-(trifluoromethyl)phenyl)-4-fluoro-2-(((2R,7aS)-2-fluorotetrahydro-1H-pyrrolizin-7a(5H)-yl)methoxy)-12-methyl-7a, 8,10,11,11a, 12-hexahydro-9H-7-oxa-1,3,6,12-tetraazapleiaden-11-ol], the results for the IC50 in experiment [3] and in experiment [4] were 0.61 nM and 73 nM, respectively. The matching figures for `CN1c2nc(OC[C@@]34CCCN3C[C@H](F)C4)nc3c(F)c(-c4ccc(F)c5sc(N)c(C#N)c45)c(Cl)c(c23)OCC12COC2` [Example 18, 2-amino-4-(8′-chloro-10′-fluoro-2′-(((2R,7aS)-2-fluorotetrahydro-1H-pyrrolizin-7a(5H)-yl)methoxy)-4′-methyl-4′H, 6′H-spiro[oxetane-3,5′-[1,4]oxazepino[5,6,7-de]quinazolin]-9′-yl)-7-fluorobenzo[b]thiophene-3-carbonitrile]: 0.84 nM and 55 nM.

As for `CCN1c2nc(OC[C@@]34CCCN3C[C@H](F)C4)nc3c(F)c(-c4cc(N)cc(Cl)c4C(F)(F)F)nc(c23)O[C@H]2COCC[C@@H]21` [Example 58, 3-chloro-5-((7aR,11aS)-12-ethyl-4-fluoro-2-(((2R,7aS)-2-fluorotetrahydro-1H-pyrrolizin-7a(5H)-yl)methoxy)-7a, 8,10,11,11a, 12-hexahydro-7,9-dioxa-1,3,6,12-tetraazaplciaden-5-yl)-4-(trifluoromethyl)aniline], the IC50 in experiment [3] came to 0.49 nM; in experiment [4], 29 nM. The matching figures for `CCN1c2nc(OC[C@@]34CCCN3C[C@H](F)C4)nc3c(F)c(-c4cc(N)cc(C)c4C(F)(F)F)nc(c23)OCCC12COC2` [Example 56, 3-(11-ethyl-4-fluoro-2-(((2R,7aS)-2-fluorotetrahydro-1H-pyrrolizin-7a(5H)-yl)methoxy)-8,9-dihydro-11H-7-oxa-1,3,6,11-tetraazaspiro[cycloocta[de]naphthalene-10,3′-oxetan]-1(11a), 2,3a, 3a^1(6a),5-pentaen-5-yl)-5-methyl-4-(trifluoromethyl)aniline]: 1.2 nM and 33 nM. The matching figures for `CN1c2nc(OC[C@@]34CCCN3C[C@H](F)C4)nc3c(F)c(-c4cc(N)cc(Cl)c4C(F)(F)F)nc(c23)OC2CCCC21` (stereo partly drawn) [Example 45, 3-chloro-5-((7a, 10a-trans)-4-fluoro-2-(((2R,7aS)-2-fluorotetrahydro-1H-pyrrolizin-7a(5H)-yl)methoxy)-11-methyl-7a, 8,9,10,10a, 11-hexahydro-7-oxa-1,3,6,11-tetraazanaphtho[1,8-fg]azulen-5-yl)-4-(trifluoromethyl)aniline]: 2.7 nM and 82 nM. The matching figures for `Cc1c(F)c(N)cc(-c2nc3c4c(nc(OC[C@@]56CCCN5C[C@H](F)C6)nc4c2F)N(C)[C@H]2CCOC[C@@H]2O3)c1C(F)(F)F` [Example 67, 2-fluoro-5-((7aR,11aS)-4-fluoro-2-(((2R,7aS)-2-fluorotetrahydro-1H-pyrrolizin-7a(5H)-yl)methoxy)-12-methyl-7a, 8,10,11,11a, 12-hexahydro-7,9-dioxa-1,3,6,12-tetraazapleiaden-5-yl)-3-methyl-4-(trifluoromethyl)aniline]: 0.65 nM and 12 nM.

Take `CN1c2nc(OC[C@@]34CCCN3C[C@H](F)C4)nc3c(F)c(-c4ccc(F)c5sc(N)c(C#N)c45)c(Cl)c(c23)OCCC12COC2` [Example 28, 2-amino-4-(9′-chloro-11′-fluoro-2′-(((2R,7aS)-2-fluorotetrahydro-1H-pyrrolizin-7a(5H)-yl)methoxy)-4′-methyl-6′,7′-dihydro-4′H-spiro[oxetane-3,5′-[1,5]oxazocino[4,3,2-de]quinazolin]-10′-yl)-7-fluorobenzo[b]thiophene-3-carbonitrile]: the IC50 worked out at 2.5 nM in experiment [3] and 206 nM in experiment [4]. The matching figures for `CN1c2nc(OC[C@@]34CCCN3C[C@H](F)C4)nc3c(F)c(-c4cc(N)c(F)c(Cl)c4C(F)(F)F)nc(c23)O[C@H]2COCC[C@@H]21` [Example 66, 3-chloro-2-fluoro-5-((7aR,11aS)-4-fluoro-2-(((2R,7aS)-2-fluorotetrahydro-1H-pyrrolizin-7a(5H)-yl)methoxy)-12-methyl-7a, 8,10,11,11a, 12-hexahydro-7,9-dioxa-1,3,6,12-tetraazapleiaden-5-yl)-4-(trifluoromethyl)aniline]: 0.47 nM and 5.8 nM.

The values above are taken from patent US20240262848A1, “HETEROCYCLIC COMPOUNDS, COMPOSITIONS THEREOF, AND METHODS OF TREATMENT THEREWITH” (BeiGene, Ltd., priority 2022, published 2024).
